Experimental data as given in PMC8490401, “Chemical proteomic profiling reveals protein interactors of the alarmones diadenosine triphosphate and tetraphosphate” (Nature Communications, 2021).

Legend:
[1] = target: T1, decapping scavenger protein (DcpS) (Homo sapiens, UniProt Q96C86); test: HPLC assay: Ap4A hydrolysed by purified DcpS and slows m7Gp3G cleavage; format: biochemical
T1 construct: His-tagged DcpS
T1 sequence (Q96C86 2-337): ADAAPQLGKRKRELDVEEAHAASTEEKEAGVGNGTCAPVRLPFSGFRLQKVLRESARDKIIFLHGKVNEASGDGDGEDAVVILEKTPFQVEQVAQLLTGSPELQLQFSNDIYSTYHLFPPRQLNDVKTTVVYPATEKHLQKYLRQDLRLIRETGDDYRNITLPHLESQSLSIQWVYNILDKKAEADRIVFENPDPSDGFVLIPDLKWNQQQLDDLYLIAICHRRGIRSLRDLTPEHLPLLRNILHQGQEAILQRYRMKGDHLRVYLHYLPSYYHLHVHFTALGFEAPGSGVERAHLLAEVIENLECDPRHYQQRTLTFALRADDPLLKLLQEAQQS

PGK1 = target: T2, PGK1 (Homo sapiens, UniProt P00558); test: fluorescence polarization, direct titration of purified protein; format: binding
T2 sequence (P00558 2-417): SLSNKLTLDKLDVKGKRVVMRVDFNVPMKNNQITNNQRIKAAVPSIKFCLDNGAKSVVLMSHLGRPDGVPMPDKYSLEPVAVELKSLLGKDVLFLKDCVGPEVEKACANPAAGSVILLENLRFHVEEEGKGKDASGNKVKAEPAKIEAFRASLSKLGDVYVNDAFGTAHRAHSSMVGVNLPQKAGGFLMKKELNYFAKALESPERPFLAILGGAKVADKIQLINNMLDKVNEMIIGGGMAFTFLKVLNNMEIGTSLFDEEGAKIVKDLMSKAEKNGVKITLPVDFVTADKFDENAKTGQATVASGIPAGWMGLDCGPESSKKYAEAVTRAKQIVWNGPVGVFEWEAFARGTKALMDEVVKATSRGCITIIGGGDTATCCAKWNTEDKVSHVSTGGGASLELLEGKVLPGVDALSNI

LDHA = LDHA (Homo sapiens, UniProt P00338); test: as above; format: binding
[2] = target: T1, decapping scavenger protein (DcpS); test: HPLC cleavage assay with purified DcpS; format: biochemical
[3] = target: T1, decapping scavenger protein (DcpS); test: HPLC assay: Ap3A hydrolysed by purified DcpS and slows m7Gp3G cleavage; format: biochemical

With `Nc1ncnc2c1ncn2[C@@H]1O[C@H](COP(=O)(O)OP(=O)(O)OP(=O)(O)OP(=O)(O)OC[C@H]2O[C@@H](n3cnc4c(N)ncnc43)[C@H](O)[C@@H]2O)[C@@H](O)[C@H]1O` [Ap4A, diadenosine tetraphosphate] the “HPLC assay: Ap4A hydrolysed by purified DcpS and slows m7Gp3G cleavage” value [1] was “demonstrating that both Ap3A and Ap4A can be cleaved by DcpS”.
Work on `Nc1ncnc2c1ncn2[C@@H]1O[C@H](COP(=O)(O)OP(=O)(O)OP(=O)(O)OC[C@H]2O[C@@H](n3cnc4c(N)nc(C#CCCCNC(=O)c5ccc6c(c5)C(=O)OC65c6ccc(O)cc6Oc6cc(O)ccc65)nc43)[C@H](O)[C@@H]2O)[C@@H](O)[C@H]1O` [F-Ap3A] yielded a Kd (PGK1) of 37.4 ± 1.62 µM and a Kd (LDHA) of 35.3 ± 0.69 µM.
For `C[n+]1cn([C@@H]2O[C@H](COP(=O)(O)OP(=O)([O-])OP(=O)(O)OC[C@H]3O[C@@H](n4cnc5c(=O)[nH]c(N)nc54)[C@H](O)[C@@H]3O)[C@@H](O)[C@H]2O)c2nc(N)[nH]c(=O)c21` [m^7Gp3G], the “HPLC cleavage assay with purified DcpS” value [2] was “HPLC profiles for the hydrolysis of m^7Gp3G (peak c) catalyzed by DcpS”.
With `Nc1ncnc2c1ncn2[C@@H]1O[C@H](COP(=O)(O)OP(=O)(O)OP(=O)(O)OC[C@H]2O[C@@H](n3cnc4c(N)ncnc43)[C@H](O)[C@@H]2O)[C@@H](O)[C@H]1O` [Ap3A, diadenosine triphosphate] the “HPLC assay: Ap3A hydrolysed by purified DcpS and slows m7Gp3G cleavage” value [3] was “demonstrating that both Ap3A and Ap4A can be cleaved by DcpS”.
